The values that follow come from EP0162576A1, “Ethanolamine compounds” (GLAXO GROUP LIMITED, priority 1984, dated 1985).

One data set concerns the target T1, β2-adrenoreceptors (Cavia porcellus, UniProt Q8K4Z4).
T1 construct: from tissue; host or cells: isolated guinea-pig trachea (tracheal rings)
The experiment in a line: Guinea-pig tracheal strip preparation (relaxation of PGF2a-contracted trachea). Format: cell-based. Particulars: equipotent concentration = EC50 test compound / EC50 isoprenaline; tracheal rings contracted with prostaglandin F2a (2.9x10^-6M), 37°. The method, then:
The compounds according to the invention have a selective stimulant action at P2-adrenoreceptors, which furthermore is of a particularly advantageous profile. […] Compounds according to the invention have shown a particularly long duration of action in this test.
The stimulant action at β2-adrenoreceptors of compounds of the invention was determined using the following:
GUINEA-PIG TRACHEAL STRIP PREPARATION
Tracheal rings were mounted in a superfusion apparatus, and continuously superfused with oxygenated physiological (Kreb's) solution containing indomethacin (2.4x10 ^6M) and atropine (4x10^-7M) at 37° at a rate of 2ml/min. Changes in tension of the preparation were measured using an isometric strain gauge. Preparations were contracted for the duration of the test by the inclusion of prostaglandin F2a (2.9x10^-6M) in the superfusion fluid. Two bolus dose-effect curves to the standard, isoprenaline, (1x10^-12-1x10^-9 moles) were obtained at the start of each test in a cumulative fashion, allowing the relaxation obtained with each to reach its own maximum before the next increment was made. On completion of this dose-effect curve, sufficient time was allowed for the tissue to recover (15-30min). After this time, sequential concentration-effect curves were constructed for first isoprenaline and then the test compound. These were constructed as follows: a low concentration (isoprenaline 3x10-^10M; test compound 1x10^-10M) was infused until any response obtained had reached its maximum, then the infusion was stopped and the tissue allowed to recover for a maximum of 30min. After this period the procedure was repeated using progressively increasing concentrations of agonist, and in this way, whole concentration-effect curves obtained. Potency was determined by comparison of the concentration-effect curve thus constructed with that previously obtained for isoprenaline and expressed as equipotent concentration (isoprenaline = 1) i.e. EC50 test compound was calculated.
Duration of action was also measured for each response, and is the time taken from stopping the infusion to 50% recovery. Graphs were drawn for duration times against response magnitude, and from these, duration times for 50% maximum responses were determined.

The test system of another data set is guinea pigs. The experiment in a line: Oral administration to guinea pigs, adverse effects. The settings on record: administered orally to guinea pigs at a dose of 5mg/kg. Format: in vivo. From the text: In general, the compounds according to the invention are non-toxic at therapeutically useful doses.

Structures can show the parent of a compound that is named as a salt.

T1 sequence (Q8K4Z4 whole entry): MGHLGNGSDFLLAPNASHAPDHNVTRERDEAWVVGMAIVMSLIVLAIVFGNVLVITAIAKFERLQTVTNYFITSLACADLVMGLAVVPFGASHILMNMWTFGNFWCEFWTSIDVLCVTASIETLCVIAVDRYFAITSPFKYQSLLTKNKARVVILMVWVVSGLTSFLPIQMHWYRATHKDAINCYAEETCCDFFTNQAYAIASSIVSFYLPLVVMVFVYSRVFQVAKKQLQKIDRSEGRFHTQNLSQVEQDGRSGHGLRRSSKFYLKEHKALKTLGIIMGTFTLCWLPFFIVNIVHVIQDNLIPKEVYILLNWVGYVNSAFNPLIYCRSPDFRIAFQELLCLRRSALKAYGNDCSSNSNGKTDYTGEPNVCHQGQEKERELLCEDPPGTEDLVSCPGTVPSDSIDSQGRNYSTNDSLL

Consider `CC(CCCCCOCCc1ccccc1)NCC(O)c1ccc(O)c(CCO)c1` (stereo not shown) [Example 5, 2-Hydroxy-5-[1-hydroxy-2-[[1-metlayl-6-(2-phenylethoxy)hexyl]amino]ethyl]benzeneethanol hydrochloride (4:3)], for which, at β2-adrenoreceptors, the “Potency (Isoprenaline = 1)” value turned out to be 0.17.
For the compound `CC(CCCCCOCCc1ccccc1)NCC(O)c1ccc(O)c2[nH]c(=O)ccc12` (stereo not shown) [Example 6, 8-Hydroxy-5-[1-hydroxy-2-[[1-methyl-6-(2-phenylethoxy)hexyl]amino]ethyl]-2(1H)-quinolinone], the “Potency (Isoprenaline = 1)” value on β2-adrenoreceptors was found to be 0.16. Further, in the data set on guinea pigs, the adverse effects entry is on record as “no adverse effects”.
On to `Oc1ccc(C(O)CNCCCCCCOCCCCc2ccccc2)cc1O` (stereo not shown) [Example 7, 4-[1-Hydroxy-2-[[6-(4-phenylbutoxy)hexyl]amino]ethyl]-1,2-benzenediol], for which the adverse effects entry in the data set with guinea pigs is “no adverse effects”.
As to `CC(CCCCCOCCc1ccccc1)NC[C@H](O)c1ccc(O)c(O)c1` (stereo partly drawn) [Example 8, (1R)-4-[1-Hydroxy-2-[1-methyl-6-(2-phenylethoxy)hexyl]amino]ethyl-1,2-benzenediol.], at β2-adrenoreceptors, the “Potency (Isoprenaline = 1)” value is 0.4. Besides, in the data set with guinea pigs, the adverse effects result was “no adverse effects”.
Take `Oc1cc(O)cc(C(O)CNCCCCCCOCCCCc2ccccc2)c1` (stereo not shown) [Example 10, 5-[1-Hydroxy-2-[[6-(4-phenylbutoxy)hexyl]amino]ethyl]-1,3-benzenediol]: in the data set with guinea pigs, the adverse effects entry was “no adverse effects”.
Take `CC(CCCCCOCCc1ccccc1)NCC(O)c1cc(O)cc(O)c1` (stereo not shown) [Example 12, 5-[1-Hydroxy-2-[[1-methyl-6-(2-phenylethoxy)hexyl]amino]ethyl]-1,3-benzenediol benzoate (salt)]: the “Potency (Isoprenaline = 1)” value at β2-adrenoreceptors came to 0.15.
Same read-out and setting: the value for `CC(CCCCCOCCc1ccc(F)cc1)NCC(O)c1cc(O)cc(O)c1` (stereo not shown) [Example 14, 5-[2-[[6-[2-(4-Fluorophenyl)ethoxy]-1-methylhexyl]amino]-1-hydroxyethyl]-1,3-benzenediol, benzoate (salt)] was 0.13; that for `COc1ccc(CCOCCCCCCNCC(O)c2ccc(O)c(O)c2)cc1` (stereo not drawn) [Example 17, 4-[l-Hydroxy-2-[[6-[2-(4-methoxyphenyl)ethoxy]hexyl]amino]ethyl]-1,2-benzenediol] was 0.6.
